Laboratory results: patent US12252472B1, “Barbituric acid derivatives, their preparation and use thereof as leukocyte transmigration inhibitors and for treating inflammatory diseases, autoimmune diseases and cancer” (BAR-ILAN UNIVERSITY, priority 2017, dated 2025)

System: C57BL/6J mice
Assay: Acute toxicology in naive mice (blood counts, biochemical tests, histology)
Format: in vivo, mouse
Method: 1% methyl cellulose in DDW solution was prepared by adding 0.5 g methyl cellulose into 50 ml of DDW and stirring the solution at the lowest possible speed (without making bubbles) overnight at room temperature. Formula 2 stock solution was prepared in concertation of 20 mg/ml at room temperature following shown below order of actions: • 1. 30 mg of the compound of Formula 2 was placed in the glass vial together with small magnet. • 2. 1.5 ml of 1% methylcellulose was added by circular (swirled) movement very slow. The entire surface of the vial was gently covered by the solvent and powder was not allowed to float above the liquid. • 3. The resulting suspension was stirred at the lowest possible speed up to 48 hours at room temperature. • 4. Intermediate Formula 2 stock solution at 10 mg/ml concentration was prepared by diluting 20 mg/ml stock solution 1:1 (v/v) with equal amount of DDW. DDW was added to the Formula 2 stock solution. The obtained suspension was stirred at the lowest possible speed for another hour at room temperature. • 5. Formula 2 working solution at 3 mg/ml was prepared by diluting intermediate stock solution (v/v) with DDW accordingly. The working suspension of Formula 2 was stirred at the low speed (˜80-100 rpm) for 30 minutes to 1 hour prior to use in animal experiments.
Eight experimental groups with 5 female 6-7 weeks old C57BL/6J mice each and one control group non treated (naïve) mice were used for the experiment. Mice were administered with daily application of the working suspension of the compound of Formula 2, prepared as described hereinabove, at 5, 10 and 15 mg/kg by intraperitoneal injection (IP) or at 10, 20 and 30 mg/kg by oral gavage (PO). […] Mice from all groups were euthanized with isoflurane 24 hours post last dose administration. Sampling for whole blood counts (WBC) and white blood differentiation: 200 μl of whole blood were collected into EDTA tubes (Greiner MiniCollect K3EDTA tubes). For comprehensive metabolic panel the rest of the whole blood (300-400 μl) was collected for the serum preparation. All blood tests were conducted in American Medical Labs, Herzeliah, Israel. Liver, spleen, lungs, heart and kidneys were collected from each mouse placed to vials with 4% buffered formalin following paraffin embedding and sectioning. Sections from each organ of each animal were stained with H&E and histological evaluation of the tissue was performed.

[1] = 5, 10, 15 mg/kg IP or 10, 20, 30 mg/kg PO, daily

COC(=O)c1ccc(COc2c(C=C3C(=O)NC(=O)NC3=O)cccc2C(C)(C)C)cc1 [Formula 2, methyl 4-((2-(tert-butyl)-6-((2,4,6-trioxotetrahydropyrimidin-5(2H)-ylidene)methyl)phenoxy)methyl) benzoate]
microstructure of lungs, heart, liver, spleen and kidney tissues (3 doses IP): no effect | microstructure of lungs, heart, liver, spleen and kidney tissues (3 doses PO): no effect | blood levels of calcium, phosphorus, sodium, potassium, chloride and hemolytic index (3 doses PO or 3 doses IP, n=5): no effect | blood levels of creatinine, urea, total protein, albumin, globulin, glucose (3 doses PO or 3 doses IP, n=5): no effect | blood levels of total billirubin, alkaline phosphatase, SGOT, SGPT and cholesterol (3 doses PO or 3 doses IP, n=5): no effect | different subtypes of red blood cells, platelets and hematocrit (3 doses PO or 3 doses IP, n=5): no effect | different subtypes of white blood cells (3 doses PO or 3 doses IP, n=5): no effect | tested metabolic values [1]: in normal range | whole blood counts and white cells differentiation [1]: no significant changes | tissues morphology, microscopic evaluation (liver, spleen, lungs, heart, kidneys, IP and PO): no changes
